Test results taken from patent US20210338555A1, “COMPOSITION AND METHOD OF INHIBITING MINERALOCORTICOID RECEPTOR ACTIVITY BY APPLYING IT TO THE SKIN” (AMOREPACIFIC CORPORATION, priority 2018, published 2021).

Tested on: mineralocorticoid receptor
Assay: MMTV-luciferase reporter assay of mineralocorticoid receptor activity in CV-1 cells
Format: cell-based
Details: 10 μg/ml compound, after 2 hours dexamethasone (1 nM), cultivated 24 hours, FIG. 2
Experimental: RNA was separated from a CV-1 cell and PCR was performed using reverse transcriptase, so gene expressions of a glucocorticoid receptor (GR) and a mineralocorticoid receptor (MR) were confirmed, and the results are shown in FIG. 1.
The CV-1 cell was cultivated in a 24-well flat incubator. After 24 hours, the incubating medium was replaced with a 10% charcoal dextran-treated FBS-DMEM, and then after 4 hours, a mixing DNA of a MMTV-luciferase reporter plasmid and an internal Control Group of a pRL-SV-40 plasmid was transfected using TRANSFAST™ reagent (Promega). After 24 hours, it was treated with 10 μg/ml of the compound (INDOFINE Chemical Company, Inc.) represented by Chemical Formula 1-1, and after 2 hours, was treated with dexamethasone (1 nM), and then cultivated for 24 hours. The luciferase activity in the cell lysate was measured using a Dual-Luciferase Reporter Assay System (Promega), and the transfection efficiency was normalized by revising Renilla luciferase activity to measure a relative luciferase activity, and the results are shown in FIG. 2.

SMILES: O=c1c(-c2ccc(O)c(O)c2)coc2cc(O)ccc12 [Chemical Formula 1-1]
- relative luciferase activity (mineralocorticoid receptor activity induced by dexamethasone): deteriorated activity of the mineralocorticoid receptor
